According to article PMC11249626, “Fluorophore-Labeled Pyrrolones Targeting the Intracellular Allosteric Binding Site of the Chemokine Receptor CCR1” (ACS Pharmacology & Translational Science, 2024):
Where two headings read alike, the source gives them in different places.

Columns and labels:
CCR2 = biological target: T1, CCR2 (Homo sapiens, UniProt P41597); assay: NanoBRET competition binding assay for CCR2 based on 7, as previously reported; conditions: for inhibition at 20 µM: compound at 20 μM
T1 construct: host or cells: HEK293T, transient
T1 sequence (P41597 1-360 isoform P41597-2): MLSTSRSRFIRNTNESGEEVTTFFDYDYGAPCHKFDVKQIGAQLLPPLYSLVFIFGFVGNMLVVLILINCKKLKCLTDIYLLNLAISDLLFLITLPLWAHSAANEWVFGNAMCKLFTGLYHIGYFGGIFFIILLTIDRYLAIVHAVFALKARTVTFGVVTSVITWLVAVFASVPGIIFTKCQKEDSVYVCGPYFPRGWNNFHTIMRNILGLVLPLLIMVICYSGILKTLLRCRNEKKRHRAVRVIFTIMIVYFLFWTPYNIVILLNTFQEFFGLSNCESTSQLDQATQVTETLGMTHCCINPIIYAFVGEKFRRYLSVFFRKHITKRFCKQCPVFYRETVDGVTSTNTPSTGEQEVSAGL
From the text: With 6 (Figure 1), a first lead structure for intracellular CCR1 inhibition that features an approximately 20-fold CCR1 over CCR2 selectivity was previously discovered by Ortiz Zacarías et al.([33]) In order to discover new chemotypes for selective CCR1 over CCR2 inhibition, we aimed to apply our novel NanoBRET competition binding assay for CCR1 in combination with our recently published CCR2 competition binding assay based on 7.[47] In our first attempt, we screened a small in-house library enriched with intracellular GPCR ligands and structural analogues thereof. […] Additionally, we tested 23 for binding to the IABS of CCR9 and CXCR2 using our recently reported NanoBRET-based assay platform (Figure 6C).[44],[45] In the course of these studies, we detected no binding of 23 to CCR9 and CXCR2 up to a concentration of 20 μM. Since cell lineage-dependent effects have been observed for CCR1 antagonists,[59] we studied the CCR1 over CCR2 selectivity of 23 by using a previously reported radioligand binding assay with membrane preparations from osteosarcoma (U2OS) cells stably expressing human CCR1 or CCR2.[33] […] In agreement with these previous reports,[33] we observed a reduction in CCR1 over CCR2 selectivity when moving from membrane-based binding assays to cell-based functional assays. […] To investigate a potential signaling bias of 23, we tested the compound by means of a NanoBiT miniGi recruitment assay.[60] […] Thus, this indicated no strong signaling bias of 23 (Figures S9E and S10C). To elucidate the SAR of this new scaffold for selective CCR1 over CCR2 inhibition, we synthesized several analogues of 23 (24–40) and tested them by means of our NanoBRET competition binding assays (Schemes S2 and S3, Table 1, Figures 6F and S11). First, we aimed to examine the impact of the stereochemistry of 23 on CCR1 affinity. As for the structurally related pyrrolone 4, large differences in CCR2 affinity between the eutomer 4-[R] and the distomer 4-[S] were described.[61] […] Furthermore, we identified the 4-hydroxyphenethyl group at position 1 of the pyrrolone scaffold as highly important for CCR1 affinity and selectivity. Its presence seems to block CCR2 binding, also when combined with the structural features of the high-affinity CCR2 ligand 5, as exemplified by 24. Especially the 4-hydroxy group at this moiety is essential for CCR1 binding (see 25 and 26). […] In position 5 of the pyrrolone, several aromatic and aliphatic substituents were tolerated (see 31–35).

CCR1 [1] = biological target: T2, CCR1 (Homo sapiens, UniProt P32246); assay: Membrane-based NanoBRET competition assay with 12 (2000 nM) and CCR1_Nluc membranes; assay type: binding; parameters: Promega pNLF1-C (Nluc) #CCR010TN00; host or cells: HEK293T, transient (PEI); conditions: 12 (2000 nM); for CCR1 inhibition class (n.i.) / % inh. of tracer binding, CCR1: compound at 20 μM
T2 sequence (P32246 1-355): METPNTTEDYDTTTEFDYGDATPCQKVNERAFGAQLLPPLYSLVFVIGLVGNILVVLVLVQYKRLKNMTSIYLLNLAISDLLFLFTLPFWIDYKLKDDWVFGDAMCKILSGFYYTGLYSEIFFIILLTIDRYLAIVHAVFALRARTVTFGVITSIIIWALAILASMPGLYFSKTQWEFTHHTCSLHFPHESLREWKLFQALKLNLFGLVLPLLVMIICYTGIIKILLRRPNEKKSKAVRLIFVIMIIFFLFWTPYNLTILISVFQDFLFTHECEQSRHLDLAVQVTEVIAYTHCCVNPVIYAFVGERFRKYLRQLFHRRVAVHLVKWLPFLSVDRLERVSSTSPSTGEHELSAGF

CCR1 [2] = biological target: T2, CCR1; assay: Live cell NanoBRET binding assay, HEK293T cells expressing CCR1_Nluc; parameters: Promega pNLF1-C (Nluc) #CCR010TN00; host or cells: HEK293T, transient (PEI); conditions: 12 (1000 nM), live HEK293T cells
[3] = read-out: CCR2 inhibition class (n.i.)
[4] = CCR1_Nluc membranes, read-out: Ki, CCR1 (converted)
[5] = read-out: % inh. of tracer binding, CCR2
[6] = CCR1_Nluc membranes, read-out: pKi ± SEM, CCR1 (converted)
[7] = CCR1_Nluc membranes, read-out: Ki, CCR1 (Figure 5B)

| Compound | inhibition at 20 µM (CCR2; [3]) | Ki (CCR1 [1]; [4]) | Ki (CCR1 [1]; [6]) | other results |
| --- | --- | --- | --- | --- |
| O=C(C1=C(O)C(=O)N(CCc2ccc(O)cc2)C1c1ccc(F)cc1)c1ccccc1 (single isomer, unassigned; (+)) [(+)-23] | < 10% | 65.7 nM | – | – |
| O=C(C1=C(O)C(=O)N(CCc2ccc(O)cc2)C1c1ccc(F)cc1)c1ccccc1 (single isomer, unassigned; (-)) [(-)-23] | – | 216 nM | 209 nM | inhibition at 20 µM (CCR2; [5]): 27% |
| CS(=O)(=O)c1cc(C2(NC(=O)c3cncc4c3cnn4-c3ccc(F)cc3)CC2)ccn1 [compound 3, reference compound] | – | – | – | Enhancement of CCR1 binding of 12 (CCR1 [1]; CCR1_Nluc membranes): ~150% |
| COCc1cn(CCCC(=O)C2=C(O)C(=O)N(c3ccc(Br)cc3F)C2C2CCCCC2)nn1 (centres unmarked) [compound 10] | – | 97.6 nM | – | – |
| CC(C)C[C@H](CO)Nc1nc(S[C@@H](C)c2ccccc2)nc2nc(N)sc12 [compound 18, reference compound] | – | 75.6 nM | 72.4 nM | Ki (CCR1 [2]; read-out: Ki, live cells): 98.3 nM; Ki (CCR1 [2]; read-out: pKi ± SEM, live cells (converted)): 93.3 nM |
| O=C(O)c1ccc(Oc2ncc(Cl)cc2NS(=O)(=O)c2ccc(Cl)c(C(F)(F)F)c2)cc1 [compound 19, reference compound] | – | 354 nM | – | Ki (CCR1 [1]; [7]): 350 nM |
| CC[C@@H](Nc1c(Nc2cccc(C(=O)N(C)C)c2O)c(=O)c1=O)c1ccc(C)o1 [compound 20, reference compound] | – | – | 2240 nM | Ki (CCR1 [1]; [7]): 2340 nM |
| CC(C)(C)c1ccc(S(=O)(=O)Nc2ccc(Cl)cc2C(=O)c2cc[n+]([O-])cc2)cc1 [compound 21, reference compound] | – | – | 2950 nM | Ki (CCR1 [1]; [7]): 3130 nM |
| CC(C)(C)c1ccc(S(=O)(=O)Nc2ccc(Cl)cc2-c2cncnc2N)cc1 [compound 22, reference compound] | – | – | 2630 nM | Ki (CCR1 [1]; [7]): 2950 nM |
| CC(=O)C1=C(O)C(=O)N(CCc2ccc(O)cc2)C1C1CCCCC1 (centres unmarked) [compound 24] | – | – | – | inhibition at 20 µM (CCR2; [5]): 10%; CCR1 inhibition class (n.i.) (CCR1 [1]): n.i. (no inhibition (percentual inhibition at 20 μM < 10%)) |
| O=C(C1=C(O)C(=O)N(CCc2ccccc2)C1c1ccc(F)cc1)c1ccccc1 (centres unmarked) [compound 25] | < 10% | 997 nM | 955 nM | – |
| O=C(C1=C(O)C(=O)N(CCc2ccc(F)cc2)C1c1ccc(F)cc1)c1ccccc1 (centres unmarked) [compound 26] | < 10% | 952 nM | 871 nM | – |
| O=C(C1=C(O)C(=O)N(CCc2cccc(O)c2)C1c1ccc(F)cc1)c1ccccc1 (centres unmarked) [compound 27] | < 10% | 184 nM | 178 nM | – |
| O=C(C1=C(O)C(=O)N(CCc2ccccc2O)C1c1ccc(F)cc1)c1ccccc1 (centres unmarked) [compound 28] | – | 291 nM | – | inhibition at 20 µM (CCR2; [5]): 49% |
| O=C(C1=C(O)C(=O)N(Cc2ccc(O)cc2)C1c1ccc(F)cc1)c1ccccc1 (centres unmarked) [compound 29] | – | 130 nM | 120 nM | inhibition at 20 µM (CCR2; [5]): 42% |
| O=C(C1=C(O)C(=O)N(c2ccc(O)cc2)C1c1ccc(F)cc1)c1ccccc1 (centres unmarked) [compound 30] | < 10% | – | – | % inh. of tracer binding, CCR1 (CCR1 [1]): 32% @ 20 μM |
| O=C(C1=C(O)C(=O)N(CCc2ccc(O)cc2)C1c1ccc(Br)cc1)c1ccccc1 (centres unmarked) [compound 31] | – | 189 nM | 182 nM | inhibition at 20 µM (CCR2; [5]): 19% |
| O=C(C1=C(O)C(=O)N(CCc2ccc(O)cc2)C1c1cccc(Br)c1)c1ccccc1 (centres unmarked) [compound 32] | < 10% | 195 nM | 178 nM | – |
| O=C(C1=C(O)C(=O)N(CCc2ccc(O)cc2)C1c1ccc(Cl)cc1)c1ccccc1 (centres unmarked) [compound 33] | – | 200 nM | 191 nM | inhibition at 20 µM (CCR2; [5]): 18% |
| O=C(C1=C(O)C(=O)N(CCc2ccc(O)cc2)C1C1CCCCC1)c1ccccc1 (centres unmarked) [compound 34] | – | 231 nM | 219 nM | inhibition at 20 µM (CCR2; [5]): 37% |
| O=C(C1=C(O)C(=O)N(CCc2ccc(O)cc2)C1c1ccccc1)c1ccccc1 (centres unmarked) [compound 35] | < 10% | 279 nM | 257 nM | – |
| O=C(C1=C(O)C(=O)N(CCc2ccc(O)cc2)C1c1ccc(F)cc1)C1CC1 (centres unmarked) [compound 36] | < 10% | – | – | % inh. of tracer binding, CCR1 (CCR1 [1]): 25% @ 20 μM |
| O=C(C1=C(O)C(=O)N(CCc2ccc(O)cc2)C1c1cccc(Br)c1)C1CC1 (centres unmarked) [compound 37] | < 10% | – | – | CCR1 inhibition class (n.i.) (CCR1 [1]): n.i. (no inhibition (percentual inhibition at 20 μM < 10%)) |
| O=C(C1=C(O)C(=O)N(CCc2ccc(O)cc2)C1c1ccc(F)cc1)c1ccc(O)cc1 (centres unmarked) [compound 38] | – | – | – | inhibition at 20 µM (CCR2; [5]): 19%; % inh. of tracer binding, CCR1 (CCR1 [1]): 42% @ 20 μM |
| O=C(C1=C(O)C(=O)N(CCc2ccc(O)cc2)C1c1ccc(F)cc1)c1cccc(O)c1 (centres unmarked) [compound 39] | < 10% | – | – | % inh. of tracer binding, CCR1 (CCR1 [1]): 38% @ 20 μM |
| O=C(C1=C(O)C(=O)N(c2ccc(Br)cc2F)C1c1ccc(F)cc1)c1ccccc1 (centres unmarked) [compound 40] | – | 224 nM | – | Ki (CCR2; NanoBRET competition, tracer 7): 7830 nM |
| CC(=O)C1=C(O)C(=O)N(c2ccc(Br)cc2)C1c1ccccc1[N+](=O)[O-] (centres unmarked) [compound 41] | – | – | – | % inh. of tracer binding, CCR1 (CCR1 [1]): ≥ 50% |
| Cc1ccc(S(=O)(=O)Nc2ccc(Cl)cc2C(=O)c2ccccc2)cc1 [compound 42] | – | – | – | % inh. of tracer binding, CCR1 (CCR1 [1]): ≥ 50% |
| CCL7: orthosteric CCR1 agonist chemokine, also referred to as MCP-3 | – | – | – | Competition with 12 at CCR1 (CCR1 [1]; CCR1_Nluc membranes): no competition |
